Reference: PMC4029899 (Clinical pharmacology and therapeutics, 2014)
Read-outs that look alike come from different tables or passages of the source. Marks after values point to notes of the source that are not given here.

What was measured:
CYP2D6 [1] = biological target: T1, CYP2D6 (Homo sapiens, UniProt P10635); experiment: Clinical cocktail DDI study with fluoxetine, dextromethorphan probe; format: in vivo; settings: for AUC(0-inf): both, human, plasma, probe dextromethorphan
[2] = cited from earlier work
CYP3A4 [3] = biological target: T2, CYP3A4 (Homo sapiens, UniProt P08684); settings: multiple dose fluoxetine; cited from earlier work
CYP3A4 [4] = biological target: T2, CYP3A4; format: in vivo; settings: for Cmax / half-life: both, human, plasma, oral; for Cmax: observed Cmax; for half-life: probe midazolam
[5] = Drug specific pharmacokinetic parameters used for simulations; format: in vivo, human; settings: estimated to achieve desired distribution kinetics
[6] = cited from earlier work; for CLIV: after 1mg IV dosing in CYP3A5 nonexpressors; for CLpo: calculated from reported CLiv and bioavailability
[7] = cited from earlier work; remark: listed apart in the source
CYP3A4 [8] = biological target: T2, CYP3A4; settings: parameter used for simulations; ref SimCYP compound library; cited from earlier work
Caco-2 = settings: ADAM model input; cited from earlier work
CYP2C19 [9] = biological target: T3, CYP2C19 (Homo sapiens, UniProt P33261); settings: from AUC ratio in CYP2C19 poor and extensive metabolizers; cited from earlier work
CYP2C19 [10] = experiment: Clinical cocktail DDI study with fluoxetine, omeprazole probe; format: in vivo, human; settings: human, plasma, oral
CYP2C19 [11] = biological target: T3, CYP2C19; experiment: as above; format: in vivo; settings: for Cmax / half-life: both, human, plasma, oral; for half-life: probe omeprazole
CYP1A2 = biological target: T4, CYP1A2 (Homo sapiens, UniProt P05177); experiment: Clinical cocktail DDI study with fluoxetine, caffeine probe; format: in vivo; settings: for AUC(0-inf): both, human, plasma
T4 sequence (P05177 1-516): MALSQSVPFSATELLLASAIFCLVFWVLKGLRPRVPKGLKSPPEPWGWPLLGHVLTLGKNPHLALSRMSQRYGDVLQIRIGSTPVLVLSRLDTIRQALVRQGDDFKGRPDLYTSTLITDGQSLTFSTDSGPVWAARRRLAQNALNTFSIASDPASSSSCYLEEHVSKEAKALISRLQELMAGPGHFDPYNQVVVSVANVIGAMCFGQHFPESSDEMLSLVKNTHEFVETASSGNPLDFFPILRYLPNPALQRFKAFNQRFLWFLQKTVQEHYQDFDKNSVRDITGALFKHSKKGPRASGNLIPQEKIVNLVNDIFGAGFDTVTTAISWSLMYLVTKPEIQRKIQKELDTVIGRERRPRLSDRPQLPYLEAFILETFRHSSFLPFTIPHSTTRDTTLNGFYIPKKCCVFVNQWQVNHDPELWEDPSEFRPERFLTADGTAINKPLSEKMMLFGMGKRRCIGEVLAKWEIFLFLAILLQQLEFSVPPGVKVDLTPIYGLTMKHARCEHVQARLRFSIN

CYP2D6 [12] = biological target: T1, CYP2D6; settings: desipramine with fluoxetine; cited from earlier work
CYP3A4 [13] = settings: cited from earlier work
CYP2C19 [14] = biological target: T3, CYP2C19; settings: lansoprazole with fluoxetine; cited from earlier work
[15] = parameter used for simulations, ref SimCYP compound library

T2 sequence (P08684 whole entry): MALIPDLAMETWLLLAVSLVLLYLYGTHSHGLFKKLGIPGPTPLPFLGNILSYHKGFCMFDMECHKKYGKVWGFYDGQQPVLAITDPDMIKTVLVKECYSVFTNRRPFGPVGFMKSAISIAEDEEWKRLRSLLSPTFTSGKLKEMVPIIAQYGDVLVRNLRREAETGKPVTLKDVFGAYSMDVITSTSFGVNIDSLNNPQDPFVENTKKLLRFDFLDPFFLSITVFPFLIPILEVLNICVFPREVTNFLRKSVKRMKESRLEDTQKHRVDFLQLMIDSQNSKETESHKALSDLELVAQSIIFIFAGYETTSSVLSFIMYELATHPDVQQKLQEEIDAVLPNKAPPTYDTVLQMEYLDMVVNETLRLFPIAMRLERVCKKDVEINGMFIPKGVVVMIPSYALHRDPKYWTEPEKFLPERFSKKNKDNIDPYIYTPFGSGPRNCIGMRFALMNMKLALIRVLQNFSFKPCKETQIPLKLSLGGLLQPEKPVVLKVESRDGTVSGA
T1 sequence (P10635 whole entry): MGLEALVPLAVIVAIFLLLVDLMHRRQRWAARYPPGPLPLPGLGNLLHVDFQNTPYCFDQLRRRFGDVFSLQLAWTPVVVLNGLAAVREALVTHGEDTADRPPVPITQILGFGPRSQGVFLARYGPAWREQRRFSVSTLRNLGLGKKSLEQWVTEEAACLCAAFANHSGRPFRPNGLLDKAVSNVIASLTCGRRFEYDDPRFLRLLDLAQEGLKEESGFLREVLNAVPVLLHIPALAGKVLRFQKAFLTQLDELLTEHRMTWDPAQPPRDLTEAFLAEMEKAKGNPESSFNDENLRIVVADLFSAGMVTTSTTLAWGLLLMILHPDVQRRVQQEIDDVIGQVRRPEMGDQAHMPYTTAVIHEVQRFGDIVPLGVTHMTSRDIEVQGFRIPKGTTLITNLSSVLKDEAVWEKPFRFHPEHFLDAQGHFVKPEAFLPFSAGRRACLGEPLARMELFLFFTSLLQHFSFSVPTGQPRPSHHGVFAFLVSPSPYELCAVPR
T3 sequence (P33261 whole entry): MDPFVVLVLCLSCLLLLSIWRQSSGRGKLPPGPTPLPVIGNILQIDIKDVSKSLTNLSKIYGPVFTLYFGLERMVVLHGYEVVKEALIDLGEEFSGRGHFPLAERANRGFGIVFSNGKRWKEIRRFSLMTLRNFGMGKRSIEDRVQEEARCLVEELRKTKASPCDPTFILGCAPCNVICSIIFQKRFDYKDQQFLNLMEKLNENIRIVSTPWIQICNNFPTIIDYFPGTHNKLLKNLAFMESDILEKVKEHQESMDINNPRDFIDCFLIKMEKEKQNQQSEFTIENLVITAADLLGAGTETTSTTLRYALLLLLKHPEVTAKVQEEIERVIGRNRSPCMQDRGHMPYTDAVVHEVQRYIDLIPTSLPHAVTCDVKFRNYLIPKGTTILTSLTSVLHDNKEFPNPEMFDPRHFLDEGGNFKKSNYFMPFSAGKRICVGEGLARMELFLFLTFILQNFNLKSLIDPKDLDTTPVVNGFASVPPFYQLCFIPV

CN1CC[C@@]23CCCC[C@@H]2[C@@H]1Cc1ccc(O)cc13 [Dextrorphan]
decrease in dextrorphan/dextromethorphan Um/Up (CYP2D6 [1]; after fluoxetine): 99% | decrease in plasma dextrorphan/dextromethorphan AUCm/AUCp (CYP2D6 [1]; after fluoxetine): 98% | change in AUC0-∞ (CYP2D6 [1]; after fluoxetine, P>0.05): unchanged | AUC(0-inf) (CYP2D6 [1]; oral): 0.028 ± 0.017 µM·h | AUC(0-inf) (CYP2D6 [1]; po, 30 mg): 0.029 ± 0.018 µM·h

Cc1ncc2n1-c1ccc(Cl)cc1C(c1ccccc1F)=NC2 [Midazolam]
B/P ([2]; previously reported): 0.86 ^i | effect on AUC (CYP3A4 [3]): no effect | Cmax (CYP3A4 [4]; 2 mg, control day): 0.017 ± 0.016 µM | half-life (CYP3A4 [4]; 2 mg): 2.2 h | Cmax (CYP3A4 [4]; day 12 of fluoxetine): 0.0145 ± 0.01 µM | half-life (CYP3A4 [4]): 2.3 h | change in AUC0-∞, oral CL and t1/2 (CYP3A4 [4]; following 12 days of fluoxetine, p>0.05): unchanged | effect on AUC (CYP3A4 [4]; two week dosing of fluoxetine): unaffected | Vsac [5]: 0.75 L/kg | kin [5]: 11 h⁻¹ | kout [5]: 7.5 h⁻¹ | CLIV [6]: 33 ^k L/hr | CLIV ([6]; listed as midazolam): 33 L/h | Vss ([6]; after IV dosing in CYP3A5 nonexpressors): 1.27 ^k L/kg | fa [6, 15]: 0.88 | fg [6, 15]: 1 | ka ([6]; previously estimated): 2.5 ^j hr^−1 | pKa 1 [7, 15]: 10.95 | fm CYP3A4 (CYP3A4 [8]): 0.94

COc1ccc2[nH]c([S+]([O-])Cc3ncc(C)c(OC)c3C)nc2c1 (stereo not drawn) [Omeprazole]
fu [2, 15]: 0.043 | Caco-2 permeability (Caco-2): 26.2*10^−06 cm/s | fm CYP2C19 (CYP2C19 [9]): 0.93 ^e | Vsac [5]: 0.1 L/kg | Vsac Q [5]: 10 L/h | CLpo [6]: 80 ^b L/hr | CLpo ([6]; listed as omeprazole): 80 L/h | CLr [6, 15]: 0.037 L/h | Vss ([6]; previously reported): 0.24 ^b L/kg | concentration at 12 h (CYP2C19 [10]): 0.034 µM | decrease in oral CL (CYP2C19 [11]; after 12 days of fluoxetine): 86% | change in t1/2 (CYP2C19 [11]; after fluoxetine): unchanged | increase in AUC0-∞ compared to control (CYP2C19 [11]; after fluoxetine dosing): 7.1 fold | Cmax (CYP2C19 [11]): 2.5 ± 1.4 µM | Cmax (CYP2C19 [11]; 20 mg): 0.66 ± 0.38 µM | half-life (CYP2C19 [11]; 20 mg): 1.2 ± 0.5 h | half-life (CYP2C19 [11]): 1.3 ± 0.1 h | omeprazole concentrations, other subjects (CYP2C19 [11]; fluoxetine administration day): 2800 ± 1200 nM | omeprazole concentrations, excluded outlier subject (CYP2C19 [11]; fluoxetine administration day, except 12-hour sample): < 4 nM | intrinsic solubility ([7]; ADAM model input): 0.25 mg/mL | fm CYP3A4 (CYP3A4 [8]): 0.07

Cc1nnc2n1-c1ccc(Cl)cc1C(c1ccccc1)=NC2 [alprazolam]
increase in AUC (CYP3A4 [3]): 1.3 fold

Cn1c(=O)c2c(ncn2C)n(C)c1=O [caffeine]
AUC(0-inf) (CYP1A2; oral): 43 ± 15 µM·h | AUC(0-inf) (CYP1A2; po, 100 mg): 43 ± 22 µM·h | effect of fluoxetine on AUC0-∞, oral CL or t1/2 (CYP1A2; p>0.05): did not affect

NC(=O)N1c2ccccc2C=Cc2ccccc21 [carbamazepine]
increase in AUC (CYP3A4 [3]): 1.3 fold

CNCCCN1c2ccccc2CCc2ccccc21 [desipramine]
increase in AUC (CYP2D6 [12]): 7.8 fold

CNCCC(Oc1ccc(C(F)(F)F)cc1)c1ccccc1 (stereo not drawn) [fluoxetine]
effect on CYP1A2 activity in vivo (CYP1A2; multiple dose fluoxetine): without affecting | effect on CYP2D6 activity in vivo (CYP2D6 [1]; multiple dose fluoxetine): strongly inhibits | effect on CYP3A4 activity in vivo (CYP3A4 [4]; multiple dose fluoxetine): without affecting | maximum induction of CYP3A4 in vitro (CYP3A4 [13]): 2 fold | effect on CYP2C19 activity in vivo (CYP2C19 [11]; multiple dose fluoxetine): strongly inhibits

Cc1c(OCC(F)(F)F)ccnc1C[S+]([O-])c1nc2ccccc2[nH]1 (stereo not drawn) [lansoprazole]
increase in AUC (CYP2C19 [14]): 2.9 fold
